The source of these data is patent US12486227B2, “Small molecules for cancer therapy that reduce the expression of transcription factors KLF5 and EGR-1” (University of Florida Research Foundation, Incorporated, priority 2019, dated 2025).

Where two headings read alike, the source gives them in different places.

One assay has as its system DLD-1 colon cancer cells. As to the kind of experiment: MTT viability assay, DLD-1. Format: cell-based. To be noted: Homo sapiens. From the text:
Specific Examples of compounds of the present disclosure have EC50 values estimated using a cell-based assay for binding to the KLF5 promoter and, in many cases, a follow-up viability assay (MTT) using DLD-1 colon cancer cells, a cell line known to highly express KLF5 and whose growth is adversely affected by the reduction of KLF5 levels. Assay protocols follow those described in the literature.^22,23 Other assays that are not described here but that are standard in the field may also be useful in establishing mechanism of action of these compounds.

A further assay concerns human KLF5 promoter. Description: KLF5 promoter activity luciferase assay in DLD-1/pGL4.18hKLF5p cells. Format: cell-based. To be noted: for EC50: read-out: Approximate potency (EC50 · mol/L) (luciferase). Here is the method: To examine the impact of these compounds on viability of CRC cell lines, we performed cell proliferation and cell growth assays using DLD-1 and HCT116 CRC cells. […] KLF5 promoter activity assay. DLD-1/pGL4.18hKLF5p cells were seeded in 96 well plate format and treated with DMSO or with test compounds dissolved in DMSO in the range of 0.001 to 20 μM final concentration for 24 h and the human KLF5 promoter activity was determined with the ONE-Glo luciferase assay system (Promega) using a SpectramMax M3 (Molecular Devices) plate reader. The IC50 values were calculated using GraphPad Prism version 5.00 for Windows (GraphPad Software) (22).

The next assay relates to KLF5. As to the kind of experiment: Western blot of KLF5 protein levels in DLD-1 cells. In kind it is cell-based, human. To be noted: 1 μM and 10 μM, 24 h. As for the experimental part:
In this experiment the test compounds were at 1 μM and 10 μM, and protein levels were measured after 24 h.
(§1) Western blot analysis. Total protein was extracted from cells with Laemmli buffer and the analysis was performed as described previously (24).

Assay [1] has as its system DLD-1 and HCT116 CRC cells. As to the kind of experiment: Cell cycle analysis by flow cytometry (propidium iodide). In kind it is cell-based, human. Particulars: 10 μM, over three days. As for the experimental part: SR18662 alters the cell cycle pattern of CRCs. […] We have also evaluated the impact of SR15006 and SR18662 on cell cycle progression. We treated DLD-1 and HCT116 CRC cells over the course of three days with vehicle or 1 μM or 10 μM of test compound and then analyzed cell cycle using flow cytometry.
Cell proliferation, cell cycle and apoptosis assays. For cell proliferation experiments, cell cycle, and apoptosis determination, DLD-1 and HCT116 cells were treated with 1 or 10 μM of each compound or with vehicle (DMSO). The cells were collected at 24, 48, and 72 h post-treatment and analyzed as previously described (24). Each experiment was performed in triplicate.
(In general: In flow cytometry, cells or beads pass a laser one at a time.)

The next assay has as its system MAPK pathway. As to the kind of experiment: Western blot of MAPK signaling pathway components. In kind it is cell-based, human. Particulars: DLD-1 and HCT116, 10 μM, 72 h.
Description: SR18662 negatively regulates MAPK and WNT signaling pathway and cyclin levels. Myriad publications have shown that in both in vitro and in vivo contexts KLF5 is regulated by MAPK and WNT signaling pathways and that KLF5, in turn, has the ability to modulate the activity of these pathways (14, 18, 26-32). We have previously shown that treatment of CRCs with ML264 results in decreased activity of both the MAPK and WNT signaling pathways (24). Because SR15006 and SRI8662 are structurally related to ML264, we decided to investigate their ability to alter the expression levels of the components of these pathways. Thus, we treated DLD-1 and HCT116 CRCs with DMSO (vehicle) and tested compounds at 1 μM or 10 μM, collecting the cells for western blot analysis at 24, 48, and 72 h. […] Similar effects were seen when both cell lines were treated these compounds at 1 μM. Furthermore, the inhibitory effects of SR18662 on the components of the MAPK signaling pathway we observed at earlier time points than were apparent following treatment with ML264 or SR15006.
as §1
For orientation: Immunoblotting shows a protein as a band on a membrane.

The next assay has as its system Cyclin D1, E, A2, and B1. Description: Western blot of cyclin levels. Particulars: DLD-1 and HCT116, 1 μM or 10 μM, 72 h. Format: cell-based, human.
Description: Cyclins and their appropriate cyclin-dependent kinases form a regulatory network that allow cells to progress through the cell cycle (39, 40). […] SR15006, or SR18662, as compared to vehicle-treated cells. Thus, we investigated if these changes are accompanied by differences in the expression levels of cyclins. We focused our attention on Cyclin D1, E, A2, and B1, as we have previously shown that ML264 has inhibitory effect on their levels (24). […] Additionally, in contrast to ML264 or SR15006, SR18862 induced apoptosis and cell death.
as §1

The test system of assay [2] is HCT-116 colorectal cancer cell line. Description: MTT growth assay, HCT-116. Format: cell-based. To be noted: Homo sapiens, Table 1. The source says: (§2) The observed activity is greater than that previously seen for ML264.
A general note: Tetrazolium dyes change colour on reduction, which living cells bring about.

Assay [3] deals with HT-29 colorectal cancer cell line. Description: MTT growth assay, HT-29. In kind it is cell-based. Particulars: Homo sapiens, Table 1.
Description: as §2

The subject of assay [4] is SW-620 colorectal cancer cell line. As to the kind of experiment: MTT growth assay, SW-620. In kind it is cell-based. To be noted: Homo sapiens, Table 1.
Description: as §2

Assay [5] concerns DLD-1-derived tumor xenografts. To be noted: once a day 25 mg/kg; cited from earlier work.
Where [6] appears, read: Table 2, read-out: Approximate potency (EC50 · mol/L) (DLD1, MTT assay).

For the molecule `CS(=O)(=O)N1CCC(CNC(=O)CNC(=O)/C=C/c2cccc(Cl)c2)CC1` [Example 4, (E)-3-(3-chlorophenyl)-N-(2-(((1-(methylsulfonyl)piperidin-4-yl)methyl)amino)-2-oxoethyl)acrylamide], the EC50 in the assay with DLD-1 colon cancer cells (setting [6]) is 2.73 µM.

Take `CS(=O)(=O)N1CCN(C(=O)CNC(=O)/C=C/c2ccc3c(c2)OCO3)CC1` [Example 18, (E)-3-(benzo[d][1,3]dioxol-5-yl)-N-(2-(4-(methylsulfonyl)piperazin-1-yl)-2-oxoethyl)acrylamide]: the EC50 in the assay on human KLF5 promoter (Homo sapiens, DLD-1, Table 2) was 0.0201 µM; in the assay on DLD-1 colon cancer cells (setting [6]), 0.0153 µM.

Turning to `CS(=O)(=O)N1CCCN(C(=O)CNC(=O)/C=C/c2cccc(Cl)c2)CC1` [Example 6, (E)-3-(3-chlorophenyl)-N-(2-(4-(methylsulfonyl)-1,4-diazepan-1-yl)-2-oxoethyl)acrylamide], in the assay on human KLF5 promoter (Homo sapiens, DLD-1, Table 2), the EC50 is 1.08 µM.

On to `CS(=O)(=O)N1CCN(C(=O)CNC(=O)/C=C/c2cccc(Cl)c2)CC1` [Example 1, (E)-3-(3-chlorophenyl)-N-(2-(4-(methylsulfonyl)piperazin-1-yl)-2-oxoethyl)acrylamide], for which, in the assay with human KLF5 promoter (Homo sapiens, DLD-1, 24 h treatment, FIG. 1B, read-out: IC50, human KLF5 promoter activity), the 50% inhibitory concentration (IC50) (usually the midpoint of a concentration-inhibition curve) stood at 0.0416 µM. Also, the EC50 came to 0.0416 µM in the assay on human KLF5 promoter (Homo sapiens, DLD-1, Table 2) and 0.0163 µM with DLD-1 colon cancer cells (setting [6]). Besides, the “KLF5 protein levels by Western blot” value in the assay with KLF5 is given as “significantly reduced”. Besides, the cell cycle distribution result in assay [1] is given as “affected the cell cycle in the similar way as did ML264”. The “expression levels of MAPK pathway components” value in the assay on MAPK pathway is “negatively regulated the expression levels of the components of the MAPK pathway”. In the assay with Cyclin D1, E, A2, and B1, the levels of cyclins entry is “significant reduction in the levels of tested cyclins”.

Regarding `CS(=O)(=O)N1CCN(C(=O)CNC(=O)/C=C/c2ccc(F)c(F)c2)CC1` [Example 14, (E)-3-(3,4-difluorophenyl)-N-(2-(4-(methylsulfonyl)piperazin-1-yl)-2-oxoethyl)acrylamide], the EC50 in the assay with human KLF5 promoter (Homo sapiens, DLD-1, Table 2) amounted to 0.0461 µM; with DLD-1 colon cancer cells (setting [6]), 0.041 µM.

On to `CS(=O)(=O)NCC1CCN(C(=O)CNC(=O)/C=C/c2cccc(Cl)c2)CC1` [Example 2, (E)-3-(3-chlorophenyl)-N-(2-(4-(methylsulfonamidomethyl)piperidin-1-yl)-2-oxoethyl)acrylamide], for which the EC50 in the assay on human KLF5 promoter (Homo sapiens, DLD-1, Table 2) worked out at 1.41 µM; in the assay with DLD-1 colon cancer cells (setting [6]) it was 0.14 µM.

Consider `CS(=O)(=O)N1CCN(C(=O)CNC(=O)/C=C/c2ccc(F)c(Cl)c2)CC1` [Example 11, (E)-3-(3-chloro-4-fluorophenyl)-N-(2-(4-(methylsulfonyl)piperazin-1-yl)-2-oxoethyl)acrylamide], for which the EC50 with human KLF5 promoter (Homo sapiens, DLD-1, Table 2) was 0.0261 µM; with DLD-1 colon cancer cells (setting [6]), 0.0253 µM.

For `CN(C(=O)CNC(=O)/C=C/c1cccc(Cl)c1)C1CCS(=O)(=O)CC1` [ML264, reference compound], the EC50 worked out at 0.013 µM with DLD-1 colon cancer cells (MTT, Table 1, read-out: EC50 (nM) DLD-1); 34 nM in [2]; 295 nM in assay [3]; 0.412 µM in [4]. In the assay with KLF5, the “KLF5 protein levels by Western blot” value was “significantly reduced”. Further, the cell cycle distribution entry in [1] was “significant decrease in the number of cells in G0/G1 and an increase in cells in S- and G2/M phases”. In the assay with MAPK pathway, the “expression levels of MAPK pathway components” value is given as “negatively regulated the expression levels of the components of the MAPK pathway”. The levels of cyclins entry in the assay with Cyclin D1, E, A2, and B1 was “significant reduction in the levels of tested cyclins”. Besides, the “growth of CRC xenografts” value in assay [5] is “significantly reduced the growth”.

As to `CS(=O)(=O)N1CCN(C(=O)CNC(=O)/C=C/c2ccc(OC(F)(F)F)c(Cl)c2)CC1` [Example 17, (E)-3-(3-chloro-4-(trifluoromethoxy)phenyl)-N-(2-(4-(methylsulfonyl)piperazin-1-yl)-2-oxoethyl)acrylamide], the EC50 in the assay with human KLF5 promoter (Homo sapiens, DLD-1, Table 2) worked out at 7.91 µM; in the assay with DLD-1 colon cancer cells (setting [6]) it was 1.61 µM.

`COc1ccc(/C=C/C(=O)NCC(=O)N2CCN(S(C)(=O)=O)CC2)cc1Cl` [Example 10, (E)-3-(3-chloro-4-methoxyphenyl)-N-(2-(4-(methylsulfonyl)piperazin-1-yl)-2-oxoethyl)acrylamide]: the EC50 in the assay with human KLF5 promoter (Homo sapiens, DLD-1, Table 2) is 0.17 µM; with DLD-1 colon cancer cells (setting [6]), 0.0638 µM.

For `CS(=O)(=O)N1CCN(C(=O)CNC(=O)/C=C/c2ccc(C(F)(F)F)c(Cl)c2)CC1` [Example 16, (E)-3-(3-chloro-4-(trifluoromethyl)phenyl)-N-(2-(4-(methylsulfonyl)piperazin-1-yl)-2-oxoethyl)acrylamide], in the assay on human KLF5 promoter (Table 2), the “Approximate potency (EC50 · mol/L) (luciferase)” value is “Not converged”. Also, the EC50 in the assay on DLD-1 colon cancer cells (setting [6]) turned out to be 0.315 µM.

For the molecule `CS(=O)(=O)N1CCN(C(=O)CNC(=O)/C=C/c2cc(Cl)cc(Cl)c2)CC1` [Example 13, (E)-3-(3,5-dichlorophenyl)-N-(2-(4-(methylsulfonyl)piperazin-1-yl)-2-oxoethyl)acrylamide], the EC50 in the assay on human KLF5 promoter (Homo sapiens, DLD-1, Table 2) came to 0.108 µM; with DLD-1 colon cancer cells (setting [6]) it was 0.0781 µM.

Take `CS(=O)(=O)N1CCN(C(=O)CNC(=O)/C=C/c2cccc(Br)c2)CC1` [Example 12, (E)-3-(3-bromophenyl)-N-(2-(4-(methylsulfonyl)piperazin-1-yl)-2-oxoethyl)acrylamide]: the EC50 with human KLF5 promoter (Homo sapiens, DLD-1, Table 2) came to 0.0878 µM; in the assay with DLD-1 colon cancer cells (setting [6]) it was 0.0735 µM.

Take `CS(=O)(=O)NCC1CCN(C(=O)CNC(=O)/C=C/c2cccc(Cl)c2)C1` (centres unmarked) [Example 3, (E)-3-(3-chlorophenyl)-N-(2-(3-(methylsulfonamidomethyl)pyrrolidin-1-yl)-2-oxoethyl)acrylamide]: in the assay with human KLF5 promoter (Homo sapiens, DLD-1, Table 2), the EC50 stood at 0.846 µM.

With `O=C(/C=C/c1cccc(Cl)c1)NCC(=O)N1CCN(S(=O)(=O)C2CCCCC2)CC1` [Example 7, (E)-3-(3-chlorophenyl)-N-(2-(4-(cyclohexylsulfonyl)piperazin-1-yl)-2-oxoethyl)acrylamide], the EC50 in the assay with human KLF5 promoter (Homo sapiens, DLD-1, Table 2) turned out to be 1.28 µM; in the assay on DLD-1 colon cancer cells (setting [6]) it was 0.347 µM.

For `Cc1ccc(/C=C/C(=O)NCC(=O)N2CCN(S(C)(=O)=O)CC2)cc1Cl` [Example 15, (E)-3-(3-chloro-4-methylphenyl)-N-(2-(4-(methylsulfonyl)piperazin-1-yl)-2-oxoethyl)acrylamide], the EC50 amounted to 0.00628 µM with human KLF5 promoter (Homo sapiens, DLD-1, Table 2) and 0.00363 µM in the assay on DLD-1 colon cancer cells (setting [6]).

`CS(=O)(=O)N1CCC(CNC(=O)CNC(=O)/C=C/c2cccc(Cl)c2)C1` (centres unmarked) [Example 5, (E)-3-(3-chlorophenyl)-N-(2-(((1-(methylsulfonyl)pyrrolidin-3-yl)methyl)amino)-2-oxoethyl)acrylamide]: in the assay on DLD-1 colon cancer cells (setting [6]), the EC50 amounted to 0.00326 µM.

Regarding `CC(C)CS(=O)(=O)N1CCN(C(=O)CNC(=O)/C=C/c2cccc(Cl)c2)CC1` [Example 8, (E)-3-(3-chlorophenyl)-N-(2-(4-(isobutylsulfonyl)piperazin-1-yl)-2-oxoethyl)acrylamide], the EC50 was 7.05 µM in the assay with human KLF5 promoter (Homo sapiens, DLD-1, Table 2) and 0.322 µM in the assay with DLD-1 colon cancer cells (setting [6]).
